Experimental data as given in US8859463B2, “Method for controlling noxious organisms” (Sumitomo Chemical Company, Limited, priority 2009, dated 2014).

Tests used:
Format in all cases: in vivo
Aulacorthum solani [1] = experiment: Insecticidal effect (protective value), soybean pot test, Example 1; conditions: clothianidin 44.7 g/ha; flumioxazin none; day 6 after release
Procedure: (§1) The evaluation of the insecticidal effect was performed by determining the life and death of the insects at the time of the investigation and calculating the protective value according to the following equation; Protective Value (%)=100×(1−T/C) wherein the symbols have the following meanings;
(§2) C: The number of insects at the time of observation in an untreated section: and
(§3) T: The number of insects at the time of observation in a treated section.
(§4) Thereafter, the test pot was placed in a greenhouse.

Aulacorthum solani [2] = experiment: Insecticidal effect (protective value), soybean pot test, Example 3; conditions: day 7 after release
Procedure: as §1, §2, §3, §4

Spodoptera litura [3] = experiment: Insecticidal effect (protective value), corn pot test, Example 4; conditions: flumioxazin none, day 3 after release
Procedure: as §1, §2, §3
(§5) In addition, the clothianidin suspension was attached to the corn seeds in a similar manner except that it was used in an amount of 217.5 μL.
(§6) Thereafter, the test pot was placed in a greenhouse. On day 22 after corn sowing, 10 fourth-instar larvae of Spodoptera litura were released in the pot and the whole pot was then covered with a nylon cloth.
(§7) On day 3 after release of Spodoptera litura, the insecticidal effect was examined.

Spodoptera litura [4] = experiment: Insecticidal effect (protective value), corn pot test, Example 5; conditions: day 3 after release
Procedure: as §1, §2, §3, §5
The aqueous diluted solution of saflufenacil was prepared by dissolving a given amount of saflufenacil in acetone containing 2% (w/v) of Tween 20, and diluting this solution with water to an acetone concentration of 10% (v/v).
as §6, §7

Ipomoea hederacea [5] = experiment: Herbicidal effect, soybean Wagner pot test, Example 6; conditions: clothianidin 73 g/ha; flumioxazin none; day 11 after sowing; scale 0 to 100
Text: (§8) A soil was packed in a 1/5000a Wagner pot. The above soybean seeds were sown in the Wagner pot at a rate of two seeds per pot, and the seeds of Ipomoea hederacea were sown in the pot at a rate of three seeds per pot.
(§9) On day 11 after sowing of the seeds of soybean and Ipomoea hederacea, the herbicidal effect and phytotoxicity were examined.

soybean = experiment: Phytotoxicity to soybean, Example 6; conditions: clothianidin 73 g/ha; flumioxazin none; day 11 after sowing
Text: as §8, §9

Ipomoea hederacea [6] = experiment: Herbicidal effect, corn Wagner pot test, Example 7; conditions: day 11 after sowing, scale 0 to 100
Procedure: (§10) The plastic cup was shaken by the hand so as to attach the clothianidin suspension to the corn seeds.
(§11) A soil was packed in a 1/5000a Wagner pot. The above corn seeds. were sown in the Wagner pot at a rate of one seed per pot, and the seeds of Ipomoea hederacea were sown in the pot at a rate of three seeds per pot. […] The aqueous diluted solution of saflufenacil was prepared by dissolving a given amount of saflufenacil in acetone containing 2% (w/v) of Tween 20, and diluting this solution with water to an acetone concentration of 10% (v/v).
(§12) On day 11 after sowing of the seeds of corn and Ipomoea hederacea, the herbicidal effect and phytotoxicity were examined.

corn = experiment: Phytotoxicity to corn, Example 7; conditions: day 11 after sowing
Procedure: as §10, §11, §12

Ipomoea lacunosa [7] = experiment: Herbicidal activity, corn pot test, Example 59; conditions: pyraclostrobin none, twelve days after sowing
Procedure: In a glass container measuring 60 mm in inner diameter and 20 mm in height, 8 mg of a pyraclostrobin emulsifiable concentrate (emulsifiable concentrate containing 23.8% pyraclostrobin, manufactured by BASF under the trade name of Comet) and 25 corn seeds were placed. After capping a glass container, the pyraclostrobin emulsifiable concentrate was adhered to the corn seeds by shaking the glass container by hand. In the same manner, 22 mg of the pyraclostrobin emulsifiable concentrate was adhered to the corn seeds.
(§13) A plastic pot measuring 194 mm in inner diameter and 176 mm in height was filled with the soil. In this pot, 2 corn seeds were sown per 1 pot and 10 seeds of Ipomoea lacunosa were sown per 1 pot. On the day of sowing of the corn seeds, after sowing the corn seeds, a water diluted solution (24.5 mg of product/liter) of a flumioxazin granular wettable powder (granular wettable powder containing 51% flumioxazin, manufactured by Valent USA Corporation under the trade name of Valor SX), a water diluted solution (66.7 mg of product/liter) of a sulfentrazone granular wettable powder (granular wettable powder containing 75% sulfentrazone, manufactured by FMC Corporation under the trade name of Cover), a water diluted solution (15 mg/liter) of saflufenacil and a water diluted solution (100 mg/liter) of oxyfluorfen were uniformly sprayed over a surface of the soil in each amount described in Tables 22 to 25, using a sprayer. The water diluted solutions of saflufenacil and oxyfluorfen were prepared by dissolving each predetermined amount of saflufenacil and oxyfluorfen in acetone containing 2% (w/v) Tween 20 and diluting each solution with water so as to adjust the concentration of acetone to 10% by volume.
Twelve days after sowing the seeds of corn and Ipomoea lacunose, herbicidal activity was examined.

Ipomoea lacunosa [8] = experiment: Herbicidal activity, corn pot test, Example 76; conditions: metalaxyl-M none, ten days after sowing
Procedure: In a glass container measuring 60 mm in inner diameter and 20 mm in height, 15 mg of a metalaxyl-M emulsifiable concentrate (emulsifiable concentrate containing 33.3% metalaxyl-M, manufactured by Syngenta under the trade name of Apron XL) and 25 corn seeds were placed. After capping this glass container, the metalaxyl-M emulsifiable concentrate was adhered to the corn seeds by shaking the glass container by hand. In the same manner, 33 mg of the metalaxyl-M emulsifiable concentrate was adhered to the corn seeds.
as §13, with “sulfentrazone” for “sulfentrazone,”, “28” for “22”, “31,” for “25,”
Ten days after sowing the seeds of corn and Ipomoea lacunosa, herbicidal activity was examined.

Ipomoea hederacea [9] = experiment: Herbicidal activity, corn pot test, Example 16; conditions: azole seed treatment none, saflufenacil 30 g/ha, twelve days after sowing
Procedure: In a glass container measuring 60 mm in inner diameter and 20 mm in height, 8 μl of a prothioconazole emulsifiable concentrate (emulsifiable concentrate containing 25% prothioconazole, manufactured by Bayer Crop Science Inc. under the trade name of Proline) and 20 corn seeds were placed. The prothioconazole emulsifiable concentrate was adhered to the corn seeds by shaking this plastic cup by hand. In the same manner, 8 μl of a difenoconazole emulsifiable concentrate (emulsifiable concentrate containing 25% difenoconazole, manufactured by Syngenta under the trade name of Score) was adhered to 20 corn seeds. In the same manner, 50 mg of a tebuconazole suspension (suspension containing 20% tebuconazole, manufactured by Hokko Chemical Industry under the trade name of ONLY ONE Flowable) was adhered to 20 corn seeds.
A plastic pot measuring 194 mm in inner diameter and 176 mm in height was filled with the soil. In this pot, 3 corn seeds were sown per 1 pot and 10 seeds of Ipomoea hederacea were sown per 1 pot. […]

Aulacorthum solani [10] = experiment: Insecticidal effect (protective value), soybean pot test, Example 2; conditions: thiamethoxam 78.9 g/ha; flumioxazin none; day 6 after release
Procedure: as §1, §2, §3, §4

[11] = clothianidin 340 g/ha, saflufenacil none
[12] = clothianidin 605 g/ha, saflufenacil none
[13] = clothianidin none, saflufenacil 32 g/ha

In the case of `CN/C(=N\[N+](=O)[O-])NCc1cnc(Cl)s1` [Clothianidin, clothianidin], the “Protective Value” (Aulacorthum solani [1]) is reported as 59.1%, the “Protective Value” (Aulacorthum solani [2]; clothianidin 55.3 g/ha, sulfentrazone none) is reported as 55.2% and the “Protective Value” (Spodoptera litura [3]; clothianidin 553 g/ha) is reported as 30%. For the same compound, the “Protective Value” (Spodoptera litura [3]; clothianidin 984 g/ha) was 65%, the “Protective Value” (Spodoptera litura [4]; clothianidin 272 g/ha, saflufenacil none) was 30% and the “Protective Value” (Spodoptera litura [4]; clothianidin 496 g/ha, saflufenacil none) was 40%. For the same compound, the “Evaluation of Effect on Weeds” value (Ipomoea hederacea [5]) was 0, the “Phytotoxicity to Soybean” value (soybean) was “No harm” and the “Evaluation of Effect on Weeds” value (Ipomoea hederacea [6]; [11]) was 0. The “Evaluation of Effect on Weeds” value (Ipomoea hederacea [6]; [12]) was 0, the “Phytotoxicity to Corn” value (corn; [11]) was “No harm” and the “Phytotoxicity to Corn” value (corn; [12]) was “No harm”.
`CCOc1cc(Oc2ccc(C(F)(F)F)cc2Cl)ccc1[N+](=O)[O-]` [Oxyfluorfen, oxyfluorfen] showed a Herbicidal activity (Ipomoea lacunosa [7]; oxyfluorfen 200 g/ha) of 45 and a Herbicidal activity (Ipomoea lacunosa [8]; oxyfluorfen 200 g/ha) of 45.
In the case of `CC(C)N(C)S(=O)(=O)NC(=O)c1cc(-n2c(=O)cc(C(F)(F)F)n(C)c2=O)c(F)cc1Cl` [Saflufenacil, saflufenacil], the “Protective Value” (Spodoptera litura [4]; [13]) is reported as 0%, the “Protective Value” (Spodoptera litura [4]; clothianidin none, saflufenacil 125 g/ha) is reported as 0% and the “Evaluation of Effect on Weeds” value (Ipomoea hederacea [6]; [13]) is reported as 50. The “Phytotoxicity to Corn” value (corn; [13]) was “No harm”, the “Herbicidal activity on Ipomoea hederacea” value (Ipomoea hederacea [9]) was 88 and the Herbicidal activity (Ipomoea lacunosa [7]; saflufenacil 30 g/ha) was 45. For the same compound, the Herbicidal activity (Ipomoea lacunosa [8]; saflufenacil 30 g/ha) was 45.
In the case of `Cc1nn(-c2cc(NS(C)(=O)=O)c(Cl)cc2Cl)c(=O)n1C(F)F` [Sulfentrazone, sulfentrazone], the “Protective Value” (Aulacorthum solani [2]; clothianidin none, sulfentrazone 200 g/ha) is reported as 0%, the Herbicidal activity (Ipomoea lacunosa [7]; sulfentrazone 100 g/ha) is reported as 40 and the Herbicidal activity (Ipomoea lacunosa [8]; sulfentrazone 100 g/ha) is reported as 40.
For `CN1COCN(Cc2cnc(Cl)s2)/C1=N\[N+](=O)[O-]` [Thiamethoxam, thiamethoxam], the “Protective Value” (Aulacorthum solani [10]) was 86.9%.
